# Values quoted from earlier work, collected in patent US20200299317A1 (Tokuyama Corporation, priority 2018, published 2020).
# Settings: ferric citrate obtainable per Patent Literature 2
substance,measurement,value
ferric citrate,BET specific surface area,20 to 45 m^2/g
